Assay results taken from paper PMC5618632, “In Vitro Glucuronidation of Wushanicaritin by Liver Microsomes, Intestine Microsomes and Expressed Human UDP-Glucuronosyltransferase Enzymes” (International Journal of Molecular Sciences, 2017).
Several values for one entry are separate records, joined by “and”; a condition that tells them apart may be missing. Equal values may be shown once.

How the values were obtained:
UGT2B7 = molecular target: T1, UGT2B7 (Homo sapiens, UniProt P16662); assay: Glucuronidation by expressed UGT2B7
T1 sequence (P16662 24-529): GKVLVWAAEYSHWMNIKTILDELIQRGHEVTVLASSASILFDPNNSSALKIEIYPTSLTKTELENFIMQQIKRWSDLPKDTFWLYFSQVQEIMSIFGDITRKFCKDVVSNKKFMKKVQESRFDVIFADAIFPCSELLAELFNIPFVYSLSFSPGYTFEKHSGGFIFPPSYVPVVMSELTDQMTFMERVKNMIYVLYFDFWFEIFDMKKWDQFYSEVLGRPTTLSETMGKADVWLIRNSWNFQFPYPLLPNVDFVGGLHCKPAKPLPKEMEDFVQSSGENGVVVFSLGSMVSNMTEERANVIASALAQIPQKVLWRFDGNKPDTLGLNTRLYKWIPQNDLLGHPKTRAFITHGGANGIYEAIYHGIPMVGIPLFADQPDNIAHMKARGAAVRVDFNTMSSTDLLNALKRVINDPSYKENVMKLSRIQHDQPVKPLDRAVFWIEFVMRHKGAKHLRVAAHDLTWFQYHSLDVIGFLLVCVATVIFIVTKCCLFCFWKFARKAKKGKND
Procedure: (§1) The reaction was terminated by adding ice-cold acetonitrile. […] All experiments were performed in triplicate.
(§2) The gradient elution program was the same as the UPLC condition of the structural identification of wushanicaritin glucuronides above. The detection wavelength was set at 270 nm, and the injection volume was 8 µL.
(§3) The parameter were as follow. V is the formation rate of the product. Vmax is the maximal velocity. […] Ksi is the substrate inhibition constant. […] (1) V=Vmax ×[S]/Km+[S] (2) V=Vmax ×[S]/Km + [S](1+[S]/Ksi)
(§4) The contribution of individual expressed UGT enzymes to wushanicaritin glucuronidation in HLM was evaluated by the relative activity factor (RAF) approach as described in previous studies. The relative activity factor was defined as the activity ratio of HLM to an expressed UGT enzyme (Supersome) toward a probe substrate for this enzyme using Equation (3). The relative amount of wushanicaritin glucuronidation in HLM attributed to an expressed UGT enzyme was estimated by multiplying the glucuronidation activity (i.e., the intrinsic clearance) derived with this enzyme by the corresponding RAF. […] The contributions of individual UGT enzyme were calculated according to Equation (4). (3) RAF=CLint{probe,pHLM}/CLint{probe,Supersome} (4) Contribution of UGTs=CLint(wushanica ritin,UGTs)/CLint(wushanica ritin,pHLM)×RAF

[1] = Glucuronidation by pooled human liver microsomes (HLM), UDPGA-supplemented; format: in vitro ADME; settings: for microsomal CLint / Km: human, pooled liver microsomes
Procedure: as §1, §3

UGT1A3 = molecular target: T2, UGT1A3 (Homo sapiens, UniProt P35503); assay: Glucuronidation by expressed UGT1A3; format: in vitro ADME; settings: human, expressed UGT1A3 (Supersome); probe substrate glucuronidation; UGT1A3
T2 construct: purchased Corning Biosciences
T2 sequence (P35503 29-534): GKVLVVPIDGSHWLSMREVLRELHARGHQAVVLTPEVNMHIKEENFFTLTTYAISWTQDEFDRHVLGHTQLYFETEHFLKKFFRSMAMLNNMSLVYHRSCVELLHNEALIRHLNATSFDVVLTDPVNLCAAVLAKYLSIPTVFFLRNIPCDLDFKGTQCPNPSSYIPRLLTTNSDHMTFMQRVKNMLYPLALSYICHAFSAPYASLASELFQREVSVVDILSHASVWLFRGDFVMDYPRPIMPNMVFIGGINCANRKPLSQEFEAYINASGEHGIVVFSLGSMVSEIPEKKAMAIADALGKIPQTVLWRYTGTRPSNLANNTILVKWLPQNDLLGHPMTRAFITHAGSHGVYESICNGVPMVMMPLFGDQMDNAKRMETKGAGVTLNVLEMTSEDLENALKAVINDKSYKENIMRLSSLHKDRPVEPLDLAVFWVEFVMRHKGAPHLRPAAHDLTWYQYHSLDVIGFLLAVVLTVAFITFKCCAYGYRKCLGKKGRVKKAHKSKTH
Procedure: as §1
(§5) A series of working solutions of wushanicaritin were determined by the Acquity™ UPLC I-Class system equipped with a BEH C18 column (2.1 mm × 50 mm, 1.7 µm, Waters, Ireland, Part No. 186002350). The gradient elution program was the same as the UPLC condition of the structural identification of wushanicaritin glucuronides above. The detection wavelength was set at 270 nm, and the injection volume was 8 µL.
as §3
as §4, with “(3) RAF=CLint{probe,pHLM}/CLint{probe,Supersome} (4) Contribution of UGTs=CLint(wushanica ritin,UGTs)/CLint(wushanica ritin,pHLM)×RAF” left out

expressed human UGT1A3 = molecular target: T3, expressed human UGT1A3 (Homo sapiens, UniProt P35503); assay: Glucuronidation by expressed UGT1A3; format: in vitro ADME; settings: relative activity factor for UGT1A3 = CLint(probe, pHLM)/CLint(probe, Supersome)
T3 construct: purchased Corning Biosciences
T3 sequence (P35503 29-534): T2 sequence (P35503 29-534)
Procedure: as §1, §5, §3
as §4, with “(3) RAF=CLint{probe,pHLM}/CLint{probe,Supersome} (4) Contribution of UGTs=CLint(wushanica ritin,UGTs)/CLint(wushanica ritin,pHLM)×RAF” left out

expressed human UGT1A1 = molecular target: T4, expressed human UGT1A1 (Homo sapiens, UniProt P22309); assay: Glucuronidation by expressed UGT1A1; settings: substrate inhibition constant; formation of G1 (3-O-glucuronide); UGT1A1
T4 sequence (P22309 26-533): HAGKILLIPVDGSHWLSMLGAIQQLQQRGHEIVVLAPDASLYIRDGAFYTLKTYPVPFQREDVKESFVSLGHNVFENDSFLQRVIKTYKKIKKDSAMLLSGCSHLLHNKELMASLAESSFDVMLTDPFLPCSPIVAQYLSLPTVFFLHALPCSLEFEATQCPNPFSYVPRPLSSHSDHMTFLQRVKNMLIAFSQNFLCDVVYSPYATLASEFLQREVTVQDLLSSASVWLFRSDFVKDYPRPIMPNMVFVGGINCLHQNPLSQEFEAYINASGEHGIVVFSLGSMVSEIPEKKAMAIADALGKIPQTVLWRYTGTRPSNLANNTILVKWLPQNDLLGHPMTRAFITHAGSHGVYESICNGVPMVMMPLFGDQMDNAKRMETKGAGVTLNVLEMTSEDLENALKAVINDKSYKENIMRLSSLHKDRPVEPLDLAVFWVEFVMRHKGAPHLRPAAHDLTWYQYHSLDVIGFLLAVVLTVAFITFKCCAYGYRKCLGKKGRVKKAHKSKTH
Procedure: as §1, §2, §3, §4

[2] = Glucuronidation by monkey liver microsomes (MkLM); format: in vitro ADME; settings: for Km: monkey, liver microsomes, read-out: Km or S50; for Ki: substrate inhibition constant
Procedure: as §1, §3

[3] = Glucuronidation by guinea pig liver microsomes (GpLM); format: in vitro ADME; settings: for Km: guinea pig, liver microsomes, read-out: Km or S50
Procedure: as §1, §3

[4] = Glucuronidation by dog liver microsomes (DLM); format: in vitro ADME; settings: for Km: dog, liver microsomes, read-out: Km or S50; for Ki: substrate inhibition constant
Procedure: as §1, §3

[5] = Glucuronidation by rabbit liver microsomes (RaLM); format: in vitro ADME; settings: for Km: rabbit, liver microsomes, read-out: Km or S50
Procedure: as §1, §3

[6] = Glucuronidation by human intestine microsomes (HIM); format: in vitro ADME; settings: for Km: human, intestine microsomes, read-out: Km or S50
Procedure: as §1, §3

[7] = design: method as in PMID 21968061; settings: DPPH radical scavenging (antioxidant activity); cited from earlier work
[8] = Glucuronidation by rat liver microsomes (RLM); format: in vitro ADME; settings: for Km: rat, liver microsomes, read-out: Km or S50; for Ki: substrate inhibition constant
Procedure: as §1, §3

[9] = human, pH 7.4
Procedure: Wushanicaritin was incubated with HLM, HIM and expressed UGTs enzymes to determine the rates of glucuronidation as published previously [12, 23, 31]. Briefly, the incubation mixture mainly contained 50 mM Tris-hydrochloric acid buffer (pH 7.4), 0.88 mM MgCl2, 22 µg/mL alamethicin, 4.4 mM saccharolactone and 3.5 mM UDPGA [32]. The reaction was terminated by adding ice-cold acetonitrile. The samples were vortexed and centrifuged at 13,800× g for 10 min. The supernatant was subjected to UPLC/Q-TOF-MS (Waters Corporation, Manchester, UK) analysis. […] Similarly, wushanicaritin was incubated with DLM, RLM, MkLM, RaLM and GpLM in the same way as for HLM. All experiments were performed in triplicate. Preliminary experiments were performed to ensure that the rates of glucuronidation were determined under linear conditions with respect to the incubation time and protein concentration.
Serial concentrations of wushanicaritin (0.156–20 µM) were incubated with HLM, HIM and expressed UGTs enzymes to determine wushanicaritin glucuronidation rates. […] Appropriate models were selected by visual inspection of the Eadie–Hofstee plot [34]. Model fitting and parameter estimation were performed by GraphPad Prism V5 software (GraphPad Software, Inc., San Diego, CA, USA).
V is the formation rate of the product. Vmax is the maximal velocity. Km is the Michaelis constant, and [S] is the substrate. […]

not read [10] = substrate: CC(C)c1cccc(C(C)C)c1O; assay: not read; settings: other: probe substrate glucuronidation; UGT1A9; pH 7.4
not read [11] = substrate: COc1ccc(-c2oc3c(CCC(C)(C)O)c(O)cc(O)c3c(=O)c2O)cc1; assay: not read; settings: UGT1A9, pH 7.4
Procedure: Briefly, the incubation mixture mainly contained 50 mM Tris-hydrochloric acid buffer (pH 7.4), 0.88 mM MgCl2, 22 µg/mL alamethicin, 4.4 mM saccharolactone and 3.5 mM UDPGA [32]. The reaction was terminated by adding ice-cold acetonitrile. […] The supernatant was subjected to UPLC/Q-TOF-MS (Waters Corporation, Manchester, UK) analysis. […] All experiments were performed in triplicate. Preliminary experiments were performed to ensure that the rates of glucuronidation were determined under linear conditions with respect to the incubation time and protein concentration.
Appropriate models were selected by visual inspection of the Eadie–Hofstee plot [34]. Model fitting and parameter estimation were performed by GraphPad Prism V5 software (GraphPad Software, Inc., San Diego, CA, USA).
V is the formation rate of the product. Vmax is the maximal velocity. Km is the Michaelis constant, and [S] is the substrate. Ksi is the substrate inhibition constant. The intrinsic clearance (CLint) was derived by Vmax/Km for the Michaelis–Menten and substrate inhibition models [12]. (1) V=Vmax ×[S]/Km+[S] (2) V=Vmax ×[S]/Km + [S](1+[S]/Ksi)
The contribution of individual expressed UGT enzymes to wushanicaritin glucuronidation in HLM was evaluated by the relative activity factor (RAF) approach as described in previous studies [2, 12]. The relative activity factor was defined as the activity ratio of HLM to an expressed UGT enzyme (Supersome) toward a probe substrate for this enzyme using Equation (3). The relative amount of wushanicaritin glucuronidation in HLM attributed to an expressed UGT enzyme was estimated by multiplying the glucuronidation activity (i.e., the intrinsic clearance) derived with this enzyme by the corresponding RAF. […] The contributions of individual UGT enzyme were calculated according to Equation (4). (3) RAF=CLint{probe,pHLM}/CLint{probe,Supersome} (4) Contribution of UGTs=CLint(wushanica ritin,UGTs)/CLint(wushanica ritin,pHLM)×RAF

[12] = probe substrate glucuronidation
[13] = probe substrate glucuronidation, read-out: Km
[14] = formation of G1 (3-O-glucuronide)
[15] = formation of G2 (7-O-glucuronide)
[16] = pH 7.4, formation of G1 (3-O-glucuronide)
[17] = pH 7.4, formation of G2 (7-O-glucuronide)
[18] = other: formation of G1 (3-O-glucuronide)
[19] = other: formation of G2 (7-O-glucuronide)

Cc1cn([C@H]2C[C@H](N=[N+]=[N-])[C@@H](CO)O2)c(=O)[nH]c1=O [AZT, zidovudine, reference compound]
Km (UGT2B7): 1600 ± 121 µM
microsomal CLint (UGT2B7; expressed UGT2B7 (Supersome)): 0.26 ± 0.02 µL/min/mg
microsomal CLint [1, 12]: 0.27 ± 0.02 µL/min/mg
Km [1, 13]: 4360 ± 341 µM
Vmax [1, 12]: 1.18 ± 0.53 nmol/min/mg

C[C@H](CCC(=O)O)[C@H]1CC[C@H]2[C@@H]3[C@H](O)C[C@@H]4C[C@H](O)CC[C@]4(C)[C@H]3CC[C@]12C [CDCA, chenodeoxycholic acid, reference compound]
microsomal CLint (UGT1A3): 18.5 ± 1.28 µL/min/mg
RAF (expressed human UGT1A3): 0.48
microsomal CLint [1, 12]: 8.86 ± 0.74 µL/min/mg
Km [1, 13]: 14.3 ± 1.16 µM
Vmax [1, 12]: 0.13 ± 0.003 nmol/min/mg

COc1ccc(-c2oc3c(CCC(C)(C)O)c(O)cc(O)c3c(=O)c2O)cc1 [wushanicaritin]
Ki (expressed human UGT1A1): 17.150 ± 4.478 µM
Vmax [1, 14]: 1.34 nmol/min/mg and 1.34 ± 0.08 nmol/min/mg
Vmax [1, 15]: 0.35 nmol/min/mg and 0.35 ± 0.01 nmol/min/mg
Km ([1]; pH 7.4, formation of G1 (3-O-glucuronide), read-out: Km or S50): 1.07 ± 0.13 µM
Km ([1]; pH 7.4, formation of G2 (7-O-glucuronide), read-out: Km or S50): 0.5 ± 0.08 µM
Ki ([1]; substrate inhibition constant, formation of G1 (3-O-glucuronide)): 32.99 µM and 32.990 ± 6.717 µM
Vmax [2, 14]: 0.22 ± 0.02 nmol/min/mg
Vmax [2, 15]: 0.21 ± 0.008 nmol/min/mg
Km [2, 16]: 1.58 ± 0.25 µM
Km [2, 17]: 0.94 ± 0.08 µM
Ki [2, 14]: 11.57 ± 2.15 µM
Ki [2, 15]: 36.23 ± 5.13 µM
Vmax [3, 14]: 0.05 ± 0.002 nmol/min/mg
Vmax [3, 15]: 1.43 ± 0.06 nmol/min/mg
Km [3, 16]: 2.53 ± 0.3 µM
Km [3, 17]: 0.93 ± 0.06 µM
Km [4, 16]: 1.11 ± 0.16 µM
Km [4, 17]: 1.17 ± 0.13 µM
Vmax [4, 14]: 0.19 ± 0.01 nmol/min/mg
Vmax [4, 15]: 0.32 ± 0.02 nmol/min/mg
Ki [4, 14]: 29.09 ± 6.58 µM
Ki [4, 15]: 44.14 ± 9.09 µM
Vmax [5, 14]: 0.11 ± 0.004 nmol/min/mg
Vmax [5, 15]: 0.56 ± 0.02 nmol/min/mg
Km [5, 16]: 2.22 ± 0.26 µM
Km [5, 17]: 3.29 ± 0.39 µM
Vmax [6, 14]: 0.74 nmol/min/mg and 0.74 ± 0.05 nmol/min/mg
Vmax [6, 15]: 1.34 nmol/min/mg and 1.34 ± 0.10 nmol/min/mg
Km [6, 16]: 4.24 ± 0.75 µM
Km [6, 17]: 5.91 ± 1.1 µM
IC50 [7]: 35.3 µM
Vmax [8, 14]: 0.34 ± 0.01 nmol/min/mg
Vmax [8, 15]: 0.37 ± 0.009 nmol/min/mg
Km [8, 16]: 0.66 ± 0.06 µM
Km [8, 17]: 0.45 ± 0.03 µM
Ki [8, 14]: 37.11 ± 5.82 µM
Ki [8, 15]: 44.22 ± 5.42 µM
species difference in hepatic glucuronidation ([9]; dog, rat, monkey, rabbit, guinea pig): up to 60.0 fold
variability of kinetic parameters, rat versus humans [9]: ≤ 2.5 fold

B1: expressed human UGT1A9 (Homo sapiens) (protein)
chain: GKLLVVPMDGSHWFTMRSVVEKLILRGHEVVVVMPEVSWQLGRSLNCTVKTYSTSYTLEDLDREFKAFAHAQWKAQVRSIYSLLMGSYNDIFDLFFSNCRSLFKDKKLVEYLKESSFDAVFLDPFDNCGLIVAKYFSLPSVVFARGILCHYLEEGAQCPAPLSYVPRILLGFSDAMTFKERVRNHIMHLEEHLLCHRFFKNALEIASEILQTPVTEYDLYSHTSIWLLRTDFVLDYPKPVMPNMIFIGGINCHQGKPLPMEFEAYINASGEHGIVVFSLGSMVSEIPEKKAMAIADALGKIPQTVLWRYTGTRPSNLANNTILVKWLPQNDLLGHPMTRAFITHAGSHGVYESICNGVPMVMMPLFGDQMDNAKRMETKGAGVTLNVLEMTSEDLENALKAVINDKSYKENIMRLSSLHKDRPVEPLDLAVFWVEFVMRHKGAPHLRPAAHDLTWYQYHSLDVIGFLLAVVLTVAFITFKCCAYGYRKCLGKKGRVKKAHKSKTH
Km (not read [10]): 45.91 ± 5.91 µM
K0.5 (not read [11]; [18]): 0.32 ± 0.03 µM
Vmax (not read [11]; [18]): 8e-05 µmol/min/mg
Vmax/Km (not read [11]; [18]): 240 µL/min/mg
K0.5 (not read [11]; [19]): 0.39 ± 0.06 µM
Vmax (not read [11]; [19]): 0.00011 µmol/min/mg
Vmax/Km (not read [11]; [19]): 270 µL/min/mg
